According to US7064139B2, “Method for treating retroviral infections” (Uniroyal Chemical Company, Inc., priority 2001, dated 2006):
Values after ≈ are worked out from the molar mass of the structure shown.

Legend:
HIV-1 (IIIB) = assay: microbe, parasite or virus in culture; assay type: cell-based; details: for EC50 (ug/ml) HIV-1 / EC50: CEM cells, syncytium formation, day four post infection; for HIV-1 % Protection: protection of CEM cells against virus-induced cytopathicity at the concentration in the previous column; for EC50: Human immunodeficiency virus 1, IIIB, CCRF-CEM, read-out: EC50 (ug/ml) HIV-1
In short: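 Human T-lymphoblast CEM cells at roughly 300,000 cells per ml were infected with about 100 CCID50 of HIV-1 (IIIB). Then 100 μl of the infected suspension went into 200 μl microtiter wells holding 100 μl of 5-fold serial compound dilutions. Inhibition of syncytium formation was scored microscopically on day four post infection, and protection against virus-induced cytopathicity was recorded.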

Davis strain CMV = assay: Reduction of CMV-induced cytopathicity in HEL cells; assay type: cell-based, human cytomegalovirus (HCMV); details: HEL cells; for Antiviral EC50 (ug/ml) Davis strain CMV / EC50: virus-induced cytopathicity after seven days; for Antiviral % Inhibition Davis strain CMV: estimate of percent protection at the concentration in the previous column; for EC50: Human betaherpesvirus 5, 168 h, read-out: Antiviral EC50 (ug/ml) Davis strain CMV
In short: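 Confluent HEL cells were infected with 100 PFU/well CMV for 1–2 h, then washed and kept in MEM with 2% FCS and test compound. EC50 is the concentration cutting virus-induced cytopathicity by 50% versus untreated control at day 7. Where cytotoxicity interfered, percent protection at the stated concentration is given.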

HIV-2 (ROD) = assay: Inhibition of HIV-2 syncytium formation in CEM cells; assay type: cell-based; details: for EC50 (ug/ml) HIV-2 / EC50: CEM cells, syncytium formation, day four post infection; for HIV-2 % Protection: protection of CEM cells against virus-induced cytopathicity at the concentration in the previous column; for EC50: Human immunodeficiency virus 2, CCRF-CEM, read-out: EC50 (ug/ml) HIV-2
In short: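 Human T-lymphoblast CEM cells, suspended at roughly 300,000 cells per ml of culture medium, were infected with about 100 CCID50 of HIV-2 (ROD). Aliquots of 100 μl of infected cells were placed in 200 μl microtiter wells holding 100 μl of serial 5-fold compound dilutions, and syncytium formation was scored microscopically four days after infection.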

For `COc1ccc(CS(=O)(=O)c2cc(C(C)(C)C)cc[n+]2[O-])cc1` [Compound 135], the “EC50 (ug/ml) HIV-1” value (HIV-1 (IIIB)) was >20 µg/mL, the “HIV-1 % Protection” value (HIV-1 (IIIB)) was 0.0% and the “Antiviral EC50 (ug/ml) Davis strain CMV” value (Davis strain CMV) was 12.5 µg/mL. The “EC50 (ug/ml) HIV-2” value (HIV-2 (ROD)) was >20.00 µg/mL and the “HIV-2 % Protection” value (HIV-2 (ROD)) was 0.0%.
With `COc1ccc(OC)c(CS(=O)(=O)c2cccc[n+]2[O-])c1` [Compound 47] the “EC50 (ug/ml) HIV-1” value (HIV-1 (IIIB)) was 10.00 µg/mL (≈ 32.3 µM), the “Antiviral % Inhibition Davis strain CMV” value (Davis strain CMV) was 20.0% and the “Antiviral EC50 (ug/ml) Davis strain CMV” value (Davis strain CMV) was >50 µg/mL. The “EC50 (ug/ml) HIV-2” value (HIV-2 (ROD)) was 35.0 µg/mL (≈ 113 µM).
In the case of `CC(C)c1ccc(CS(=O)(=O)c2cccc[n+]2[O-])cc1` [Compound 58], the “EC50 (ug/ml) HIV-1” value (HIV-1 (IIIB)) is reported as 3.40 µg/mL (≈ 11.7 µM), the “Antiviral EC50 (ug/ml) Davis strain CMV” value (Davis strain CMV) is reported as 5.0 µg/mL and the “EC50 (ug/ml) HIV-2” value (HIV-2 (ROD)) is reported as 2.6 µg/mL (≈ 8.92 µM).
For `Cc1ccc2ccccc2c1CS(=O)(=O)c1cccc[n+]1[O-]` [Compound 43], the “EC50 (ug/ml) HIV-1” value (HIV-1 (IIIB)) was “≧4 ug/ml”, the “HIV-1 % Protection” value (HIV-1 (IIIB)) was 37.5% and the “Antiviral % Inhibition Davis strain CMV” value (Davis strain CMV) was 20.0%. The “Antiviral EC50 (ug/ml) Davis strain CMV” value (Davis strain CMV) was >50 µg/mL, the “EC50 (ug/ml) HIV-2” value (HIV-2 (ROD)) was “≧4 ug/ml” and the “HIV-2 % Protection” value (HIV-2 (ROD)) was 37.5%.
`Cc1ccc(CS(=O)(=O)c2cccc[n+]2[O-])cc1` [Compound 11] was tested, and the “EC50 (ug/ml) HIV-1” value (HIV-1 (IIIB)) was 13.00 µg/mL (≈ 49.4 µM), the “Antiviral EC50 (ug/ml) Davis strain CMV” value (Davis strain CMV) was 29.0 µg/mL and the “EC50 (ug/ml) HIV-2” value (HIV-2 (ROD)) was 10.0 µg/mL (≈ 38 µM).
With `O=S(=O)(Cc1c(Cl)ccc(Cl)c1Cl)c1cccc[n+]1[O-]` [Compound 33] the “EC50 (ug/ml) HIV-1” value (HIV-1 (IIIB)) was “≧4 ug/ml”, the “HIV-1 % Protection” value (HIV-1 (IIIB)) was 37.5% and the “Antiviral EC50 (ug/ml) Davis strain CMV” value (Davis strain CMV) was 5.0 µg/mL. The “EC50 (ug/ml) HIV-2” value (HIV-2 (ROD)) was “≧4 ug/ml” and the “HIV-2 % Protection” value (HIV-2 (ROD)) was 37.5%.
In the case of `O=S(=O)(Cc1ccc(Cl)cc1Cl)c1cccc[n+]1[O-]` [Compound 18], the “EC50 (ug/ml) HIV-1” value (HIV-1 (IIIB)) is reported as 2.40 µg/mL (≈ 7.54 µM), the “Antiviral EC50 (ug/ml) Davis strain CMV” value (Davis strain CMV) is reported as 5.0 µg/mL and the “EC50 (ug/ml) HIV-2” value (HIV-2 (ROD)) is reported as 2.5 µg/mL (≈ 7.86 µM).
`COc1cc(CS(=O)(=O)c2cccc[n+]2[O-])cc(OC)c1OC` [Compound 50] was tested, and the “EC50 (ug/ml) HIV-1” value (HIV-1 (IIIB)) was “≧20 ug/ml”, the “HIV-1 % Protection” value (HIV-1 (IIIB)) was 37.5% and the “Antiviral % Inhibition Davis strain CMV” value (Davis strain CMV) was 20.0%. For the same molecule, the “Antiviral EC50 (ug/ml) Davis strain CMV” value (Davis strain CMV) was >50 µg/mL, the “EC50 (ug/ml) HIV-2” value (HIV-2 (ROD)) was “≧20 ug/ml” and the “HIV-2 % Protection” value (HIV-2 (ROD)) was 37.5%.
In the case of `O=[N+]([O-])c1ccc[n+]([O-])c1SCc1ccccc1` [Compound 146], the “EC50 (ug/ml) HIV-1” value (HIV-1 (IIIB)) is reported as 2.30 µg/mL (≈ 8.77 µM), the “Antiviral EC50 (ug/ml) Davis strain CMV” value (Davis strain CMV) is reported as 40.0 µg/mL and the “EC50 (ug/ml) HIV-2” value (HIV-2 (ROD)) is reported as “≧20 ug/ml”. For the same molecule, the “HIV-2 % Protection” value (HIV-2 (ROD)) was 37.5%.
With `Cc1cc(CS(=O)(=O)c2cccc[n+]2[O-])c(C)cc1CS(=O)(=O)c1cccc[n+]1[O-]` [Compound 25] the “EC50 (ug/ml) HIV-1” value (HIV-1 (IIIB)) was 10.00 µg/mL (≈ 22.3 µM), the “Antiviral EC50 (ug/ml) Davis strain CMV” value (Davis strain CMV) was 16.0 µg/mL and the “EC50 (ug/ml) HIV-2” value (HIV-2 (ROD)) was “≧20 ug/ml”. The “HIV-2 % Protection” value (HIV-2 (ROD)) was 37.5%.
For `Cc1ccc(C)c(C(C)S(=O)(=O)c2cc(C)cc(C)[n+]2[O-])c1` (stereo not shown) [Compound 81], the “EC50 (ug/ml) HIV-1” value (HIV-1 (IIIB)) was “≧20 ug/ml”, the “HIV-1 % Protection” value (HIV-1 (IIIB)) was 37.5% and the “Antiviral EC50 (ug/ml) Davis strain CMV” value (Davis strain CMV) was 8.6 µg/mL. For the same molecule, the “EC50 (ug/ml) HIV-2” value (HIV-2 (ROD)) was >20.0 µg/mL and the “HIV-2 % Protection” value (HIV-2 (ROD)) was 0.0%.
`Cc1cc[n+]([O-])c(S(=O)(=O)Cc2ccc(Cl)cc2)c1` [Compound 129] was tested, and the “EC50 (ug/ml) HIV-1” value (HIV-1 (IIIB)) was >14 µg/mL, the “Antiviral % Inhibition Davis strain CMV” value (Davis strain CMV) was 20.0% and the “Antiviral EC50 (ug/ml) Davis strain CMV” value (Davis strain CMV) was >5 µg/mL. For the same molecule, the “EC50 (ug/ml) HIV-2” value (HIV-2 (ROD)) was 11.0 µg/mL (≈ 36.9 µM).
`Cc1ccc(C)c(C(Cl)S(=O)(=O)c2cc(C)cc[n+]2[O-])c1` (stereo not shown) [Compound 74, 2-[(2,5-dimethylphenyl)chloromethylsulfonyl]-4-methylpyridine-1-oxide] was tested, and the EC50 (HIV-1 (IIIB)) was 0.42 µg/mL (≈ 1.29 µM), the EC50 (Davis strain CMV) was 34.5 µg/mL (≈ 106 µM) and the EC50 (HIV-2 (ROD)) was > 100 µg/mL. For the same molecule, the “HIV-2 % Protection” value (HIV-2 (ROD)) was 0.0%.
In the case of `O=S(=O)(Cc1ccc(Cl)c(Cl)c1)c1cccc[n+]1[O-]` [Compound 37, 2-(3,4-dichlorobenzylsulfonyl)-pyridine-N-oxide], the EC50 (HIV-1 (IIIB)) is reported as 1 µg/mL (≈ 3.14 µM), the “Antiviral % Inhibition Davis strain CMV” value (Davis strain CMV) is reported as 30.0% and the EC50 (Davis strain CMV) is reported as > 5 µg/mL. It also gave an EC50 (HIV-2 (ROD)) of 1.3 µg/mL (≈ 4.09 µM).
`O=[N+]([O-])c1cc(CS(=O)(=O)c2cccc[n+]2[O-])ccc1Cl` [Compound 64, 2-[[(4-chloro-3-nitrophenyl)methyl]sulfonyl]-pyridine-1-oxide] was tested, and the EC50 (HIV-1 (IIIB)) was 1.5 µg/mL (≈ 4.56 µM), the “Antiviral % Inhibition Davis strain CMV” value (Davis strain CMV) was 10.0% and the EC50 (Davis strain CMV) was > 5 µg/mL. It also gave an EC50 (HIV-2 (ROD)) of 1.9 µg/mL (≈ 5.78 µM).
With `Cc1ccc(C)c(C(C)[S+]([O-])c2ccccn2)c1` (stereo not shown) [Compound 163] the “EC50 (ug/ml) HIV-1” value (HIV-1 (IIIB)) was 3.25 µg/mL (≈ 12.5 µM), the “Antiviral % Inhibition Davis strain CMV” value (Davis strain CMV) was 0.0% and the “Antiviral EC50 (ug/ml) Davis strain CMV” value (Davis strain CMV) was >50 µg/mL. The “EC50 (ug/ml) HIV-2” value (HIV-2 (ROD)) was >100 µg/mL and the “HIV-2 % Protection” value (HIV-2 (ROD)) was 0.0%.
For `O=[N+]([O-])c1ccc(CS(=O)(=O)c2cccc[n+]2[O-])c(Cl)c1` [Compound 69], the “EC50 (ug/ml) HIV-1” value (HIV-1 (IIIB)) was 2.90 µg/mL (≈ 8.82 µM), the “Antiviral % Inhibition Davis strain CMV” value (Davis strain CMV) was 20.0% and the “Antiviral EC50 (ug/ml) Davis strain CMV” value (Davis strain CMV) was >5 µg/mL. For the same molecule, the “EC50 (ug/ml) HIV-2” value (HIV-2 (ROD)) was 2.9 µg/mL (≈ 8.82 µM).
